# Source: patent US20030215959A1, “Method of screening binding of a compound to a receptor” (priority 2002, published 2003)
# Experiments:
# [1] = biological target: T1, GluR2-S1S2 (ligand-binding domain of the GluR2 subunit of the glutamate receptor) (Rattus norvegicus, UniProt P19491); assay: Quinoxaline (CNQX) displacement assay with GluR2-S1S2, visible difference absorption spectra; conditions: GluR2-S1S2 bound to 25 μM CNQX; test ligand 50 μM; phosphate buffer pH 7.4; 310 nm to 450 nm; FIG. 1 traces B-E
# T1 construct: made in house
# From the text: To begin, a baseline or control spectrum of the free quinoxaline derivative in buffer solution is generated. A second spectrum is then taken of the quinoxaline admixed with the receptor under investigation. A difference spectrum is then generated between the first spectrum (free quinoxaline) and second spectrum (protein-bound quinoxaline). The characteristic features of this difference spectrum arise due to changes in the electronic spectrum of the quinoxaline derivative bound to the protein as compared to the electronic spectrum of the free quinoxaline. Thus, the difference spectrum can be used as the control to test for compounds that compete for the same binding site as quinoxaline derivative.
# With the difference spectrum in hand as a control, a known amount of a test agent is added to a test well containing the receptor protein and the quinoxaline derivative. […] A visible spectrum is than taken of the test well. This test spectrum is then compared to the control spectrum to see if they share the same characteristic changes in the electronic character of the quinoxaline. […]
# [2] = system: non-NMDA glutamate receptors in mouse cortical cells; assay: CNQX displacement assay with homogenized mouse cortical cells, visible difference absorption spectra; format: binding; conditions: homogenized mouse cortical cells with CNQX in PBS pH 7.4; test compound 100 μM; 310 nm to 450 nm; FIG. 2 traces A-B
# Experimental: Cortical neuronal cultures: Mixed cortical cell cultures containing both neurons and astrocytes were prepared from fetal mice (15-16 day gestation) as described by Asrari and Lobner (14). Briefly, dissociated cortical cells were plated on a preexisting astrocyte monolayer in a 24-well plate (a plating density of ˜2.5×10^5 cells per well). The plating medium was Eagle's minimal essential medium (MEM) (Earle's salts, supplied glutamine-free) supplemented with 5% fetal bovine serum, 5% horse serum, 2 mM glutamine and 20 mM glucose. Non-neuronal cell division was halted at 3-5 days in vitro by 3-day exposure to […] cytosine arabinoside. Cultures were maintained in humidified 5% CO2 incubators at 37° C. and were used for experiments at 14-16 days in vitro.
# Absorption measurements: The UV-visible absorption spectra were obtained using Agilent 8453 or Shimadzu UV 2501 spectrometers. The spectra were recorded in the 310 nm to 450 nm range, at a spectral resolution of 2 nm, using a 1 cm quartz cuvette as the sample holder. […]
# Dissociated mouse cortical cells were obtained as outlined in the Materials and Methods section. […] CNQX was added to the cells such that the final absorption of the sample in the 310 nm to 450 nm range was less than 1 absorbance unit. […]
# T1 sequence (P19491 411-527): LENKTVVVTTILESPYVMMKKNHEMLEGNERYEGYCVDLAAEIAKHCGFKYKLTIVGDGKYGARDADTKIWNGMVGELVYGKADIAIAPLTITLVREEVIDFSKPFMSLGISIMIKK
# T1 sequence (P19491 653-796): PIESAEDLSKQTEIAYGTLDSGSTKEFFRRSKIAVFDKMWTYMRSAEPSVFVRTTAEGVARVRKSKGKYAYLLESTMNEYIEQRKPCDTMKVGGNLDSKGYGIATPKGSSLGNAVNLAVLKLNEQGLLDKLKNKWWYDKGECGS
smiles,measurement,setting,value
NCCCC(=O)O [γ-amino butyric acid],displacement of bound CNQX from the receptor protein (difference spectrum),[1],does not displace CNQX from the protein
same,displacement of CNQX from the non-NMDA glutamate receptors in cortical cells (difference spectrum),[2],CNQX is not displaced
N[C@@H](CCC(=O)O)C(=O)O [glutamate],displacement of CNQX from the non-NMDA glutamate receptors in cortical cells (difference spectrum),[2],is displaced by the addition of glutamate
